Assay results: the CheMixHub viscosity set

Test: xn = mol fraction of the nth substance listed

Cc1ncc(C[n+]2csc(CCO)c2C)c(N)n1.Cl.[Cl-] + O
Conditions | viscosity [mPa·s]
293.15 K, 101 kPa, x1 = 0.00036 | 1.014
293.15 K, 101 kPa, x1 = 0.00072 | 1.027
293.15 K, 101 kPa, x1 = 0.00108 | 1.041
293.15 K, 101 kPa, x1 = 0.00144 | 1.057
293.15 K, 101.3 kPa, x1 = 0.000445 | 1.015
293.15 K, 101.3 kPa, x1 = 0.000886 | 1.029
293.15 K, 101.3 kPa, x1 = 0.00177 | 1.063
293.15 K, 101.3 kPa, x1 = 0.002215 | 1.08
298.15 K, 101 kPa, x1 = 0.00036 | 0.9013
298.15 K, 101 kPa, x1 = 0.000364 | 0.9024
298.15 K, 101 kPa, x1 = 0.000385 | 0.914
298.15 K, 101 kPa, x1 = 0.000657 | 0.914
298.15 K, 101 kPa, x1 = 0.00072 | 0.9129
298.15 K, 101 kPa, x1 = 0.000731 | 0.929
298.15 K, 101 kPa, x1 = 0.000952 | 0.9244
298.15 K, 101 kPa, x1 = 0.00107 | 0.941
298.15 K, 101 kPa, x1 = 0.00108 | 0.9266
298.15 K, 101 kPa, x1 = 0.00125 | 0.9372
298.15 K, 101 kPa, x1 = 0.00144 | 0.9406
298.15 K, 101 kPa, x1 = 0.00145 | 0.96
298.15 K, 101 kPa, x1 = 0.00155 | 0.9488
298.15 K, 101 kPa, x1 = 0.001658 | 0.9532
298.15 K, 101 kPa, x1 = 0.001695 | 0.9545
298.15 K, 101 kPa, x1 = 0.001856 | 0.959
298.15 K, 101 kPa, x1 = 0.001922 | 0.98
298.15 K, 101 kPa, x1 = 0.002519 | 0.9786
298.15 K, 101 kPa, x1 = 0.002881 | 1.013
298.15 K, 101 kPa, x1 = 0.003713 | 1.05
298.15 K, 101 kPa, x1 = 0.003828 | 1.034
298.15 K, 101 kPa, x1 = 0.004291 | 1.055
298.15 K, 101 kPa, x1 = 0.004534 | 1.083
298.15 K, 101 kPa, x1 = 0.005245 | 1.097
298.15 K, 101 kPa, x1 = 0.005408 | 1.111
298.15 K, 101 kPa, x1 = 0.007149 | 1.185
298.15 K, 101 kPa, x1 = 0.00796 | 1.228
298.15 K, 101 kPa, x1 = 0.009056 | 1.254
298.15 K, 101 kPa, x1 = 0.009864 | 1.281
298.15 K, 101.3 kPa, x1 = 0.000445 | 0.902
298.15 K, 101.3 kPa, x1 = 0.000886 | 0.916
298.15 K, 101.3 kPa, x1 = 0.00133 | 0.931
298.15 K, 101.3 kPa, x1 = 0.00177 | 0.947
298.15 K, 101.3 kPa, x1 = 0.002215 | 0.963
303.15 K, 101 kPa, x1 = 0.00036 | 0.8078
303.15 K, 101 kPa, x1 = 0.00072 | 0.8185
303.15 K, 101 kPa, x1 = 0.00108 | 0.8322
303.15 K, 101 kPa, x1 = 0.00144 | 0.8443
303.15 K, 101.3 kPa, x1 = 0.000445 | 0.808
303.15 K, 101.3 kPa, x1 = 0.000886 | 0.822
303.15 K, 101.3 kPa, x1 = 0.00133 | 0.836
303.15 K, 101.3 kPa, x1 = 0.00177 | 0.85
303.15 K, 101.3 kPa, x1 = 0.002215 | 0.864
308.15 K, 101 kPa, x1 = 0.00036 | 0.729
308.15 K, 101 kPa, x1 = 0.000364 | 0.7301
308.15 K, 101 kPa, x1 = 0.000657 | 0.7393
308.15 K, 101 kPa, x1 = 0.00072 | 0.7391
308.15 K, 101 kPa, x1 = 0.000952 | 0.7485
308.15 K, 101 kPa, x1 = 0.00108 | 0.7506
308.15 K, 101 kPa, x1 = 0.00125 | 0.7576
308.15 K, 101 kPa, x1 = 0.00144 | 0.7631
308.15 K, 101 kPa, x1 = 0.00155 | 0.768
308.15 K, 101 kPa, x1 = 0.001658 | 0.7726
308.15 K, 101 kPa, x1 = 0.001695 | 0.7711
308.15 K, 101 kPa, x1 = 0.001856 | 0.7772
308.15 K, 101 kPa, x1 = 0.002519 | 0.8005
308.15 K, 101 kPa, x1 = 0.003828 | 0.837
308.15 K, 101 kPa, x1 = 0.004291 | 0.8515
308.15 K, 101 kPa, x1 = 0.005245 | 0.8799
308.15 K, 101.3 kPa, x1 = 0.000445 | 0.73
308.15 K, 101.3 kPa, x1 = 0.000886 | 0.743
308.15 K, 101.3 kPa, x1 = 0.00177 | 0.77
308.15 K, 101.3 kPa, x1 = 0.002215 | 0.783
313.15 K, 101 kPa, x1 = 0.00036 | 0.6623
313.15 K, 101 kPa, x1 = 0.00072 | 0.6722
313.15 K, 101 kPa, x1 = 0.00108 | 0.6831
313.15 K, 101 kPa, x1 = 0.00144 | 0.6947
313.15 K, 101.3 kPa, x1 = 0.000445 | 0.664
313.15 K, 101.3 kPa, x1 = 0.000886 | 0.676
313.15 K, 101.3 kPa, x1 = 0.00133 | 0.689
313.15 K, 101.3 kPa, x1 = 0.00177 | 0.702
313.15 K, 101.3 kPa, x1 = 0.002215 | 0.713
318.15 K, 101 kPa, x1 = 0.000364 | 0.6037
318.15 K, 101 kPa, x1 = 0.000657 | 0.6116
318.15 K, 101 kPa, x1 = 0.000952 | 0.6196
318.15 K, 101 kPa, x1 = 0.00125 | 0.6275
318.15 K, 101 kPa, x1 = 0.00155 | 0.6343
318.15 K, 101 kPa, x1 = 0.001658 | 0.6377
318.15 K, 101 kPa, x1 = 0.001695 | 0.6389
318.15 K, 101 kPa, x1 = 0.001856 | 0.6413
318.15 K, 101 kPa, x1 = 0.002519 | 0.6591
318.15 K, 101 kPa, x1 = 0.003828 | 0.6919
318.15 K, 101 kPa, x1 = 0.005245 | 0.7256
318.15 K, 101.3 kPa, x1 = 0.000445 | 0.606
318.15 K, 101.3 kPa, x1 = 0.000886 | 0.618
318.15 K, 101.3 kPa, x1 = 0.00133 | 0.63
318.15 K, 101.3 kPa, x1 = 0.00177 | 0.642
318.15 K, 101.3 kPa, x1 = 0.002215 | 0.653
